How the values were obtained:
[1] = parameters: species or system rats; details: rat, in vivo, 200 mg/kg
Method: Concentration of 3,3′-diindolylmethane (μg/ml) in the Blood Plasma of Experimental Animals Given 200.0 mg/kg of 3,3′-diindolylmethane Substance Intrastomachically.
The results of measurements of 3,3′-diindolylmethane substance concentration in the blood plasma of rats given the substance intrastomachically are shown in Table 1.
3,3′-diindolylmethane Concentration (μg/ml) in the Blood Plasma of Experimental Animals Given […] of High-Bioavailability 3,3′-diindolylmethane Intrastomachically.
The results of measurements of 3,3′-diindolylmethane substance concentration in the blood plasma of rats given the substance intrastomachically are shown in Table 2.

[2] = Clinical efficiency of DIM-HB and crystalline DIM in equal doses; type: in vivo, human
Description: All classical studies compared the efficiencies of DIM-HB and crystalline DIM in equal doses.
These differences are probably attributed to effective therapeutic DIM concentrations reached in the peripheral blood and target tissues in response to DIM-HB treatment.

[3] = DIM concentration in patients' blood plasma; type: in vivo, human; details: dose 100 mg
Description: Study of DIM Concentration in Patients' Blood Plasma These differences are probably attributed to effective therapeutic DIM concentrations reached in the peripheral blood and target tissues in response to DIM-HB treatment.

With `c1ccc2c(Cc3c[nH]c4ccccc34)c[nH]c2c1` [Crystalline DIM, 3,3′-diindolylmethane] the “maximum concentration in the system blood flow” value [1] was 0.13 to 0.17 µg/mL, the “minimum concentration 12 hours after administration” value [1] was “less than 0.03 μg/ml” and the “time at which the maximum concentration was observed” value [1] was “about 1 hour”. The “dynamics in all study groups of patients in response to treatment” value [2] was “no dynamics at all” and the “DIM concentration in the plasma” value [3] was 20 to 30 ng/mL.

Source: patent US8697123B2, “Medication on the basis of 3,3′-diindolylmethane (DIM) with high-bioavailability and its use in treatment of human hyperplastic and inflammatory diseases” (Zakrytoye akstionernoye obschestvo “VELES FARMA”, priority 2010, dated 2014)
